Data published in EP3390415B1, “(R)- AND (S)-1-(3-(3-N,N-DIMETHYLAMINOCARBONYL)PHENOXYL-4-NITROPHENYL)-1-ETHYL-N,N'-BIS (ETHYLENE)PHOSPHORAMIDATE, COMPOSITIONS AND METHODS FOR THEIR USE AND PREPARATION” (OBI PHARMA, INC., priority 2015, dated 2017).
Like-named read-outs stand apart in the source and are kept apart here.

How the values were obtained:
Vcap = experiment: In vitro human tumor cell line cytotoxicity assay; type: cell-based; details: for IC50: Homo sapiens, VCaP
KYSE 270 = experiment: In vitro human tumor cell line cytotoxicity assay; type: cell-based; details: read-out: RelIC50
TE-6 = experiment: In vitro human tumor cell line cytotoxicity assay; type: cell-based; details: read-out: RelIC50
Jurkat = experiment: In vitro human tumor cell line cytotoxicity assay; type: cell-based; details: read-out: RelIC50
SNU-387 = experiment: In vitro human tumor cell line cytotoxicity assay; type: cell-based; details: for IC50: Homo sapiens
TF-1 = experiment: In vitro human tumor cell line cytotoxicity assay; type: cell-based; details: read-out: RelIC50
KYSE 180 = experiment: In vitro human tumor cell line cytotoxicity assay; type: cell-based; details: read-out: RelIC50
COLO680N = experiment: In vitro human tumor cell line cytotoxicity assay; type: cell-based; details: COLO-680N, read-out: RelIC50
PLCPRF5 = experiment: In vitro human tumor cell line cytotoxicity assay; type: cell-based; details: for IC50: Homo sapiens
C3A = experiment: In vitro human tumor cell line cytotoxicity assay; type: cell-based; details: for IC50: Homo sapiens
[1] = Pharmacokinetics (TK) after 30-min IV infusion in monkeys; type: in vivo, Cynomolgus monkeys; details: 2 mg/kg 30-min IV infusion; for MRT inf / clearance / half-life / Vd / concentration at 0.25 hr / concentration at 0.5 hr / concentration at 0.75 hr / concentration at 1 hr / concentration at 2 hr: cynomolgus monkey, plasma; for half-life: read-out: Terminal t1/2 (converted); for Vd: read-out: Vss
Procedure: TH 3423 and TH 3424 were tested in no naive monkeys (1 male and one female for each compound at 2 mg/kg) with 30-min intravenous infusion, TK sampling: on Day 1 and Day 15: 0.25, 0.5, 0.75, 1 and 2 hr post infusion initiation. Serum chemistry and hematology: pre-dose (Day 1), day 5, day 8 (pre-dose), day 15 (pre-dose), day 22 and day 28. Clinical observation: Daily during the study, total 35 days. Food consumption: Daily during the study, total 35 days. Bodyweight measurement: Twice weekly for five weeks.

TE-8 = experiment: In vitro human tumor cell line cytotoxicity assay; type: cell-based; details: read-out: RelIC50
LIXC012 = experiment: In vitro human tumor cell line cytotoxicity assay; type: cell-based; details: for IC50: Homo sapiens
[2] = both sexes, mean, read-out: Plasma concentration, Mean
[3] = female, read-out: Plasma concentration
[4] = male, read-out: Plasma concentration

For `C[C@H](OP(=O)(N1CC1)N1CC1)c1ccc([N+](=O)[O-])c(Oc2cccc(C(=O)N(C)C)c2)c1` (single isomer, unassigned) [TH3424], the IC50 (Vcap; read-out: AbsIC50) was 14.8 nM, the IC50 (Vcap; read-out: RelIC50) was 13.2 nM and the “Max Inhibition%” value (Vcap; Vcap) was 101.4%. For the same molecule, the “Min Inhibition%” value (Vcap; Vcap) was -13.2%, the IC50 (KYSE 270) was 270 nM and the IC50 (TE-6) was 21 nM. For the same molecule, the IC50 (Jurkat) was 40 nM, the “Max Inhibition%” value (SNU-387) was 99.3% and the “Min Inhibition%” value (SNU-387) was -14.8%. It also gave an IC50 (SNU-387; read-out: AbsIC50) of 70.1 nM, an IC50 (SNU-387; read-out: RelIC50) of 58.7 nM and an IC50 (TF-1) of 28 nM. For the same molecule, the IC50 (KYSE 180) was 450 nM, the IC50 (COLO680N) was 66 nM and the “Max Inhibition%” value (PLCPRF5) was 85.2%. For the same molecule, the “Min Inhibition%” value (PLCPRF5) was 1.4%, the IC50 (PLCPRF5; PLC-PRF-5, read-out: AbsIC50) was 111 nM and the IC50 (PLCPRF5; PLC-PRF-5, read-out: RelIC50) was 128 nM. The “Max Inhibition%” value (C3A) was 98.7%, the “Min Inhibition%” value (C3A) was -2.1% and the IC50 (C3A; read-out: AbsIC50) was 9.3 nM. For the same molecule, the IC50 (C3A; read-out: RelIC50) was 4.1 nM, the AUCINF ([1]; Mean) was 1461 hr^∗ng/mL and the AUClast ([1]; Mean) was 1459 hr^∗ng/mL. For the same molecule, the MRT inf ([1]; both sexes, Mean) was 13.9 min, the clearance ([1]; both sexes, Mean) was 23.7 mL/min/kg and the half-life ([1]; both sexes, Mean) was 10.9 min. The Vd ([1]; both sexes, Mean) was 0.325 L/kg, the concentration at 0.25 hr [1, 2] was 2160 ng/mL and the concentration at 0.5 hr [1, 2] was 2400 ng/mL. For the same molecule, the concentration at 0.75 hr [1, 2] was 794 ng/mL, the concentration at 1 hr [1, 2] was 185 ng/mL and the concentration at 2 hr [1, 2] was 5.64 ng/mL. The concentration at 0.25 hr [1, 3] was 1850 ng/mL, the concentration at 0.5 hr [1, 3] was 2090 ng/mL and the concentration at 0.75 hr [1, 3] was 557 ng/mL. For the same molecule, the concentration at 1 hr [1, 3] was 110 ng/mL, the concentration at 2 hr [1, 3] was 3.84 ng/mL and the MRT inf ([1]; female) was 12.9 min. For the same molecule, the clearance ([1]; female) was 27.8 mL/min/kg, the half-life ([1]; female) was 10.9 min and the Vd ([1]; female) was 0.36 L/kg. It also gave a concentration at 0.25 hr [1, 4] of 2480 ng/mL, a concentration at 0.5 hr [1, 4] of 2720 ng/mL and a concentration at 0.75 hr [1, 4] of 1030 ng/mL. The concentration at 1 hr [1, 4] was 260 ng/mL, the concentration at 2 hr [1, 4] was 7.43 ng/mL and the MRT inf ([1]; male) was 15 min. The clearance ([1]; male) was 19.3 mL/min/kg, the half-life ([1]; male) was 10.9 min and the Vd ([1]; male) was 0.289 L/kg. The AUCINF ([1]; female) was 1196 hr^∗ng/mL, the AUClast ([1]; female) was 1195 hr^∗ng/mL and the AUCINF ([1]; male) was 1726 hr^∗ng/mL. For the same molecule, the AUClast ([1]; male) was 1724 hr^∗ng/mL, the IC50 (TE-8) was 19 nM and the “Max Inhibition%” value (LIXC012) was 82.8%. The “Min Inhibition%” value (LIXC012) was 4.1%, the IC50 (LIXC012; read-out: AbsIC50) was 17.5 nM and the IC50 (LIXC012; read-out: RelIC50) was 11.2 nM.
